Experimental data: patent publication US6103875A, “Antifungal compounds from pseudomonas viridiflava” (Pharmagenesis, Inc., priority 1997, dated 2000)
In brackets after ≈: the same amount, converted by molar mass.

What was measured:
[1] = system: Candida parasilopsis 90018; test: Minimal inhibitory concentration test (modified NCCLS protocol); assay type: cell-based, Candida parasilopsis (ATCC 90018)
Description: (§1) All fungi used for test purposes for sensitivity to the ecomycins were obtained from the ATCC or from the mycological collection at Montana State University, Bozeman, Mont.
(§2) Samples of the semi-purified ecomycin preparation, purified Ecomycin A, and Ecomycin B were tested, along with a known antifungal compound, Amphotericin B, in a minimal inhibitory concentration test (MIC) modification of the NCCLS protocol (Galgiani, et al., 1995).

[2] = system: Candida kefir 46764; test: as above; assay type: cell-based, Candida kefir (ATCC 46764)
Description: as §1, §2

[3] = Thomas, 1986; cited from earlier work
[4] = system: Candida albicans 90028; test: Minimal inhibitory concentration test (modified NCCLS protocol); assay type: cell-based, Candida albicans (ATCC 90028)
Description: as §1, §2

[5] = system: Candida albicans 90029; test: as above; assay type: cell-based, Candida albicans (ATCC 90029)
Description: as §1, §2

[6] = system: Candida glabrata 90030; test: as above; assay type: cell-based, Candida glabrata (ATCC 90030); settings: Nakaseomyces glabratus
Description: as §1, §2

[7] = system: Cryptococcus neoformans 90013; test: as above; assay type: cell-based, Cryptococcus neoformans (ATCC 90013)
Description: as §1, §2

[8] = system: Candida albicans; test: Synergy with amphotericin B, inhibition of growth in 96-well plates; assay type: cell-based
Description: Briefly, in turning now to the illustrative experiments described in Example 11, varying amounts of amphotericin B were added to varying concentrations of an exemplary composition containing the antifungal lipopeptides of the present invention, extract EB-273, followed by a determination of the resulting inhibition of growth of Candida albicans.
Experiments were conducted with the semi-purified preparation of ecomycins (extract EB-273), added individually or in combination with sub-fungicidaldoses of Amphotericin B, to 96-well plates inoculated with C. albicans.

[9] = system: Cryptococcus neoformans 90012; test: Minimal inhibitory concentration test (modified NCCLS protocol); assay type: cell-based, Cryptococcus neoformans (ATCC 90012)
Description: as §1, §2

[10] = cited from earlier work

C[C@@H]1[C@H](O)[C@@H](C)/C=C/C=C/C=C/C=C/C=C/C=C/C=C/[C@H](O[C@@H]2O[C@H](C)[C@@H](O)[C@H](N)[C@@H]2O)C[C@@H]2O[C@](O)(C[C@@H](O)C[C@@H](O)[C@H](O)CC[C@@H](O)C[C@@H](O)CC(=O)O[C@H]1C)C[C@H](O)[C@H]2C(=O)O [Amphotericin B]
MIC [1]: 0.1 mg/L (≈ 0.108 µM)
MIC [2]: 0.1 mg/L (≈ 0.108 µM)
toxicity, undesirable side-effects [3]: leucopenia, thrombocytopenia, renal tubular acidosis, hypokalemia, hypomagnesemia, headaches, nausea, and anemia
MIC [4]: 0.6 mg/L (≈ 0.649 µM)
MIC [5]: 0.6 mg/L (≈ 0.649 µM)
MIC [6]: 0.6 mg/L (≈ 0.649 µM)
MIC [7]: 0.3 mg/L (≈ 0.325 µM)
inhibition at 0.035 µg/mL ([8]; Candida albicans, read-out: inhibitory effect): ~30%
inhibition at 0.07 µg/mL ([8]; Candida albicans, amphotericin B alone, 70 ng/ml, read-out: inhibitory effect): ~25%
inhibition at 0.105 µg/mL ([8]; Candida albicans, amphotericin B alone, 105 ng/ml, read-out: inhibitory effect): ~43%
inhibition at 0.14 µg/mL ([8]; Candida albicans, amphotericin B alone, 140 ng/ml, read-out: inhibitory effect): ~55%
inhibition at 0.175 µg/mL ([8]; Candida albicans, amphotericin B alone, 175 ng/ml, read-out: inhibitory effect): ~84%
enhancement of inhibitory effect ([8]; amphotericin B 70 ng/ml + extract EB-273 about 8-12 μg/ml or greater vs. amphotericin B alone): nearly four-fold
inhibitory effect ([8]; amphotericin B 70 ng/ml + extract EB-273 at about 8-12 μg/ml or greater): ~100%
enhancement of activity ([8]; amphotericin B 105 ng/ml + extract EB-273 vs. amphotericin B alone): approximate two-fold enhancement
enhancement of activity ([8]; amphotericin B 140 ng/ml + extract EB-273 vs. amphotericin B alone): approximate two-fold enhancement
interaction between amphotericin B and ecomycin extract (isobolographic analyses) ([8]; amphotericin B + ecomycin extract EB-273, range of dosage responses): synergistic rather than additive
inhibition of C. albicans ([8]; amphotericin B alone, 210 ng/ml): nearly complete inhibition
reduction of amount of amphotericin B required to effectively suppress growth of Candida ([8]; in combination with the lipopeptides composition): at least 30%
reduction of amphotericin B concentration required for substantially complete inhibition ([8]; with EB-273, [210 ng/ml-175 ng/ml]/210×100): 16%
reduction of amphotericin B concentration required for substantially complete inhibition ([8]; with a suitable concentration of EB-273, fourth of four): 66%
reduction of amphotericin B concentration required for substantially complete inhibition ([8]; with a suitable concentration of EB-273, second of four): 33%
reduction of amphotericin B concentration required for substantially complete inhibition ([8]; with a suitable concentration of EB-273, third of four): 50%
MIC [9]: 0.1 mg/L (≈ 0.108 µM)
oral absorption [10]: not adsorbed orally
